Where a name gives a salt, the structure may show the parent alone.
Experiment: in vitro
Settings: rat, gh3-tre-luc cells

Row | Compound | CC50 at 24 h (AC50 (uM) modified / 1000) | other results
1 | CCN(CC)CCOc1ccccc1OC [Guaiactamine] | > 50 µM | 
2 | OCC1CCC(CO)CC1 (centres unmarked) [1,4-Cyclohexanedimethanol] | > 90 µM | 
3 | CC(=O)c1cc2c(cc1C)C(C)(C)C(C)CC2(C)C (centres unmarked) [6-Acetyl-1,1,2,4,4,7-hexamethyltetralin] |  | CC50 at 24 h (AC50 (uM) modified / 1000, Tox21_110001=Tox21_301256, viability, 1 nM T3 present, 24 h): 45.6 µM
4 | CC(C)C(O)C(C)(C)CO (centres unmarked) [2,2,4-Trimethyl-1,3-pentanediol] | > 90 µM | 
5 | CCCCCc1cccc(=O)o1 [6-Pentyl-2H-pyran-2-one] | > 90 µM | 
6 | O=C(C[S+]([O-])Cc1ccco1)NC/C=C\COc1cc(CN2CCCCC2)ccn1 (centres unmarked) [Lafutidine] | > 50 µM | 
7 | CC(=O)Oc1ccc2c3c1O[C@H]1[C@@H](OC(C)=O)C=C[C@H]4[C@@H](C2)N(C)CC[C@@]341 [(-)-Heroin hydrochloride] | > 100 µM | 
8 | c1ccc(C2CC2)c(OCC2=NCCN2)c1 [Cirazoline] | > 50 µM | 
9 | C=CC[N@@+]12CC[C@@]34c5ccccc5N5/C=C6/[C@H]7C[C@H]8[C@@]9(CC[N@@+]8(CC=C)C/C7=C/CO)c7ccccc7N(/C=C(/[C@@H](C[C@@H]31)/C(=C\CO)C2)[C@H]54)[C@@H]69 [Alcuronium chloride] | > 20 µM | 
10 | O=C(OOC(=O)c1ccccc1)c1ccccc1 [Benzoyl peroxide] | > 50 µM | 
11 | C[C@]12N[C@H](Cc3ccccc31)c1ccccc12 [Dizocilpine maleate] |  | CC50 at 24 h (AC50 (uM) modified / 1000, Tox21_110001=Tox21_111251, viability, 1 nM T3 present, 24 h): > 50 µM
12 | c1ccc(CN(Cc2ccccc2)Cc2ccccc2)cc1 [Tribenzylamine] | > 90 µM | 
13 | CC(=O)c1nccs1 [2-Acetylthiazole] | > 90 µM | 
14 | ClC(Cl)Br [Bromodichloromethane] |  | CC50 at 24 h (AC50 (uM) modified / 1000, Tox21_110001=Tox21_200806, viability, 1 nM T3 present, 24 h): > 90 µM
15 | N#Cc1cc(I)c(O)c(I)c1 [Ioxynil] | 49.1 µM | 
16 | CCOc1ccc(NC(C)=O)cc1 [Phenacetin] | > 50 µM | 
17 | C[C@]12CC[C@@H]3c4ccc(OC(=O)c5ccccc5)cc4CC[C@H]3[C@@H]1CC[C@@H]2O [Estradiol benzoate] | > 50 µM | 
18 | CC(C)=CCC/C(C)=C/C(=O)O [Geranic acid] | > 90 µM | 
19 | COC(=O)c1cccc(C(=O)OC)c1 [Dimethyl isophthalate] | > 90 µM | 
20 | CCC(C(N)=O)N1CCCC1=O (centres unmarked) [Etiracetam] | > 50 µM | 
21 | O=Cc1ccccc1S(=O)(=O)O [Sodium 2-formylbenzenesulfonate] | > 90 µM | 
22 | NCC(CC(=O)O)c1ccc(Cl)cc1 (centres unmarked) [Baclofen] | > 50 µM | 
23 | COc1cc2c(Nc3ccc(Br)cc3F)ncnc2cc1OCC1CCN(C)CC1 [Vandetanib] | 3.74 µM | 
24 | C=CC[N+]1(C)CC[C@]23c4c5ccc(O)c4O[C@H]2C(=O)CC[C@@]3(O)[C@H]1C5 (some centres unmarked) [Naloxone methyliodide] |  | CC50 at 24 h (AC50 (uM) modified / 1000, Tox21_110001=Tox21_112025, viability, 1 nM T3 present, 24 h): > 50 µM
25 | OCC(CO)n1cnc(-c2ccc(F)cc2)c1-c1ccnc(Oc2ccccc2)n1 [SB281832] | > 90 µM | 

Row | Compound | CC50 at 24 h (AC50 (uM) modified / 1000) | other results
26 | FC1(F)C(F)(F)C(F)(F)C2(F)C(F)(F)C(F)(F)C(F)(F)C(F)(F)C2(F)C1(F)F (centres unmarked) [Perflunafene] | > 50 µM | 
27 | O=C(O)CCN(C1(C(=O)NO)CCCC1)S(=O)(=O)c1ccc(Oc2ccc(F)cc2)cc1 [CP-471358] | > 90 µM | 
28 | C=CCCCCCCC=C [1,9-Decadiene] | > 90 µM | 
29 | CCCCCCCCCCCCCCCCCC(=O)OCC(CC)CCCC (centres unmarked) [2-Ethylhexyl octadecanoate] | > 90 µM | 
30 | O=C(O)/C=C/C(O)c1ccc(Cl)cc1 (centres unmarked) [Sodium (2E)-4-(4-chlorophenyl)-4-hydroxybut-2-enoate hydrate] | > 50 µM | 
31 | CCCc1ccc(O)c(OC)c1 [2-Methoxy-4-propylphenol] | > 90 µM | 
32 | CC(=O)Oc1cc(C(C)C)c(OCCN(C)C)cc1C [Moxisylyte hydrochloride] | > 20 µM | 
33 | COc1cnc(OC)n2nc(NS(=O)(=O)c3c(OCC(F)F)cccc3C(F)(F)F)nc12 [Penoxsulam] | > 90 µM | 
34 | CCCOC(=O)c1ccccc1C(=O)OCCC [Dipropyl phthalate] | > 90 µM | 
35 | O=[N+]([O-])c1cc(Cl)c(Cl)c(Cl)c1Cl [2,3,4,5-Tetrachloronitrobenzene] | 89.5 µM | 
36 | CCOP(=S)(OCC)Oc1cnc2ccccc2n1 [Quinalphos] |  | CC50 at 24 h (AC50 (uM) modified / 1000, Tox21_110001=Tox21_202028, viability, 1 nM T3 present, 24 h): > 90 µM
37 | O=[N+]([O-])c1ccc(Cl)c(Cl)c1Cl [2,3,4-Trichloronitrobenzene] |  | CC50 at 24 h (AC50 (uM) modified / 1000, Tox21_110001=Tox21_200670, viability, 1 nM T3 present, 24 h): > 90 µM
38 | CCOC(=O)C1=C(COCCN)NC(C)=C(C(=O)OC)C1c1ccccc1Cl (centres unmarked) [Amlodipine besylate] | 19.7 µM | 
39 | Cc1cc(O)c2c(c1)C(=O)c1cccc(O)c1C2=O [Chrysophanic acid] | > 50 µM | 
40 | OCCC(F)(F)C(F)(F)C(F)(F)C(F)(F)C(F)(F)C(F)(F)F [6:2 Fluorotelomer alcohol] | > 90 µM | 
41 | CCCSS/C(CCO)=C(/C)N(C=O)Cc1cnc(C)nc1N [Prosultiamine] | 22.5 µM | 
42 | C[C@]12CCC(=O)C=C1C=C[C@@H]1[C@@H]2CC[C@@]2(C)[C@H]1CC[C@@]21CCC(=O)O1 [Canrenone] | > 50 µM | 
43 | CC[C@H](C)[C@@H]1NC(=O)[C@H](Cc2ccc(O)cc2)NC(=O)[C@@H](N)CSSC[C@@H](C(=O)N2CCC[C@H]2C(=O)N[C@@H](CC(C)C)C(=O)NCC(N)=O)NC(=O)[C@H](CC(N)=O)NC(=O)[C@H](CCC(N)=O)NC1=O [Oxytocin acetate] | > 50 µM | 
44 | O=C(NC(=O)c1c(F)cccc1F)Nc1cc(Cl)c(OC(F)(F)C(F)C(F)(F)F)cc1Cl (centres unmarked) [Lufenuron] | > 90 µM | 
45 | O=C(OCCCCCCOC(=O)c1ccccc1)c1ccccc1 [Hexane-1,6-diyl dibenzoate] | > 90 µM | 
46 | O=C(O)c1cc(-c2ccc(F)cc2F)ccc1O [Diflunisal] | > 20 µM | 
47 | CCCCCCCCCCCCCCCC/C=C/C1CC(=O)OC1=O (centres unmarked) [Dihydro-3-(octadecenyl)-2,5-furandione] | 36 µM | 
48 | CCCCCCCCO [1-Octanol] | > 90 µM | 
49 | CCN(CC)C(=O)N1CCN(C)CC1 [Diethylcarbamazine citrate] | > 20 µM | 
50 | COc1cccc(C(=O)NN(C(=O)c2cc(C)cc(C)c2)C(C)(C)C)c1C [Methoxyfenozide] | > 90 µM | 

Row | Compound | CC50 at 24 h (AC50 (uM) modified / 1000) | other results
51 | CC(C)[C@H](N)C(=O)OCCOCn1cnc2c(=O)[nH]c(N)nc21 [Valacyclovir hydrochloride] | > 50 µM | 
52 | COS(C)(=O)=O [Methyl methanesulfonate] | > 100 µM | 
53 | CCCCCCCCCCCCSC#N [Lauryl thiocyanate] | > 90 µM | 
54 | Cc1nc(C)c(C)nc1C [Tetramethylpyrazine] | > 90 µM | 
55 | CC(O)c1ccccc1 (stereo not drawn) [alpha-Methylbenzyl alcohol] | > 90 µM | 
56 | BrCc1cccc(Oc2ccccc2)c1 [1-(Bromomethyl)-3-phenoxybenzene] | > 90 µM | 
57 | CC[C@@H](C(=O)O)[C@@H]1O[C@@H]([C@@H](C)[C@H](O)[C@H](C)C(=O)[C@H](CC)[C@H]2O[C@]3(C=C[C@@H](O)[C@]4(CC[C@@](C)([C@H]5CC[C@](O)(CC)[C@H](C)O5)O4)O3)[C@H](C)C[C@@H]2C)[C@@H](C)C[C@@H]1C [Narasin] | 0.153 µM | 
58 | C1=CCC2CC=CC2C1 (centres unmarked) [3a,4,7,7a-Tetrahydroindene] | > 90 µM | 
59 | CCn1cc[n+](C)c1C [1-Ethyl-2,3-dimethylimidazolium bromide] | > 90 µM | 
60 | NCCOCCO [2-(2-Aminoethoxy)ethanol] | > 90 µM | 
61 | CO[C@@]1(NC(=O)Cc2cccs2)C(=O)N2C(C(=O)O)=C(COC(N)=O)CS[C@@H]21 [Cefoxitin] | > 50 µM | 
62 | CCN(C=O)CC [Diethylformamide] | > 90 µM | 
63 | O=C(O)c1ccccc1-c1c2ccc(=O)cc-2oc2cc(O)ccc12 [Fluorescein sodium] | > 50 µM | 
64 | CC(C)C[C@@H]1NC(=O)[C@H](CCCN)NC(=O)[C@H](C(C)C)NC(=O)[C@H](Cc2ccc(O)cc2)N[C@@H](CCC(=O)O)C(=O)N[C@@H](CC(N)=O)C(=O)[C@@H](Cc2ccccc2)NC(=O)[C@H](Cc2ccccc2)NC(=O)[C@@H]2CCCN2C(=O)[C@@H](Cc2ccccc2)NC1=O [Tyrothricin] | 1.25 µM | 
65 | CC1=C(C)C(=O)C(CCCCC#CCCCC#CCO)=C(C)C1=O [Docebenone] | 23.5 µM | 
66 | ClC(Cl)=C(Cl)C(Cl)=C(Cl)Cl [Hexachloro-1,3-butadiene] | > 90 µM | 
67 | COC(=O)c1ccccc1N [Methyl 2-aminobenzoate] |  | CC50 at 24 h (AC50 (uM) modified / 1000, Tox21_110001=Tox21_201657, viability, 1 nM T3 present, 24 h): > 90 µM
68 | COc1cc(NCCCC(C)N)c2ncccc2c1 (centres unmarked) [Quinocide] | 15.1 µM | 
69 | CC(C)=CCN1CC[C@]2(C)c3cc(O)ccc3C[C@H]1[C@H]2C [(+)-Pentazocine succinate] |  | CC50 at 24 h (AC50 (uM) modified / 1000, Tox21_110001=Tox21_112876, viability, 1 nM T3 present, 24 h): > 90 µM
70 | CCC[C@@H]1C[C@@H](C(=O)N[C@@H]([C@H]2O[C@H](SC)[C@H](O)[C@@H](O)[C@H]2O)[C@@H](C)O)N(C)C1 [Lincomycin hydrochloride] | > 50 µM | 
71 | O=C1OC(O)C(C(Cl)Cl)=C1Cl (centres unmarked) [3-Chloro-4-(dichloromethyl)-5-hydroxy-2(5H)-furanone] | 35 µM | 
72 | OCCN(CCO)c1cccc(Cl)c1 [2,2'-(3-Chlorophenylimino)diethanol] | > 90 µM | 
73 | CC(=O)Oc1ccc2c(c1)CC[C@@H]1[C@@H]2CC[C@]2(C)[C@@H](O)CC[C@@H]12 [Estradiol acetate] | 22.3 µM | 
74 | Cl/C=C/Cl [(E)-1,2-Dichloroethylene] |  | CC50 at 24 h (AC50 (uM) modified / 1000, Tox21_110001=Tox21_202419, viability, 1 nM T3 present, 24 h): > 90 µM

Reference: article PMC6792352, “Limited Chemical Structural Diversity Found to Modulate Thyroid Hormone Receptor in the Tox21 Chemical Library” (Environmental Health Perspectives, 2019)
